Several values for one entry are separate records, joined by “and”; a condition that tells them apart may be missing. Identical values can stand only once. Entries after “also recorded” stand apart in the source; their conditions may differ.
How the values were obtained:
Assay type in all cases: cell-based, human
[1] = tested on: HMC-1 cells; experiment: Histamine release in PMACI-treated HMC-1 cells (ELISA); details: for Histamine release: mean ± S.E.
Procedure: (§1) Cell culture: Human Mast Cell Line (HMC-1) cells (ATCC, Manassas, Va., USA) were maintained in IMDM (Iscove's Modified Dulbecco's Media) medium (Thermo Fisher Scientific) containing 10% fetal bovine serum (FBS; Hyclone, GE Healthcare Life Sciences) and 1% penicillin-streptomycin (Sigma-Aldrich, St. Louis, Mo., USA) in a 37° C. humidified incubator with 5% CO2. The medium was changed every 2-3 days.
(§2) HMC-1 cell treatment: HMC-1 cells were seeded in 12-well plates at a density of 7×10^5 cells per well and exposed to Tβ4 (1, 1.5, 3, and 6 μg/mL) for 1 hour before treatment with phorbol 12-myristate 13-acetate plus A23187 (PMACI; 30 nM of PMA plus 1.5 μM of A23187) to induce degranulation (activation) of mast cells and incubated at 37° C. After 2.5 hours, the medium was centrifuged (Hanil, UNION 32R PLUS) for 20 minutes at 1000×g. The supernate was transferred to another tube.
Allergic reaction factors: Histamine (HIS), Leukotrien B4 (LTB4), and Prostaglandin E2 (PGE2) amounts were evaluated to determine the effects of the disclosed composition on the release of allergic reaction factors. Histamine levels were measured using the HIS (Histamine) ELISA kit (Elabscience, Huston, Tex., USA) on the supernate of the culture medium. 50 μL of the sample was added to 96-plate wells, then 50 μL of Biotinylated Detection Ab working solution was added and incubated at 37° C. for 45 minutes. 100 μL of HRP Conjugate working solution was added and incubated at 37° C. for 30 minutes. 90 μL of Substrate reagent was added and incubated at 37° C. for 15 minutes. Washing was performed between each step. 50 μL of stop solution was added without washing. Absorbance was measured at 450 nm with a spectrophotometer (Biotek, PowerWave XS2, Winooski, Vt., USA).

[2] = tested on: HMC-1 cells; experiment: Leukotrien B4 (LTB4) release in PMACI-treated HMC-1 cells (ELISA); details: for Leukotrien B4 release: mean ± S.E.
Procedure: as §1, §2
The leukotriene B4 amount was measured using the LTB4 (Leukotriene B4) ELISA kit (MybioSource, San Diego, Calif., USA) on the supernate of the culture medium. 50 μL of the sample was added to 96-plate wells, then 50 μL of Biotinylated Detection Ab working solution was added and incubated at 37° C. for 45 minutes. 100 μL of HRP Conjugate working solution was added and incubated at 37° C. for 30 minutes. 90 μL of Substrate reagent was added and incubated at 37° C. for 15 minutes. Washing was performed between each step. 50 μL of stop solution was added without washing. Absorbance was measured at 450 nm with a spectrophotometer (Biotek, PowerWave XS2, Winooski, Vt., USA).

[3] = tested on: HMC-1 cells; experiment: IL-4 release in PMACI-treated HMC-1 cells (ELISA); details: for IL-4 release: mean ± S.E.
Procedure: as §1, §2
(§3) Inflammatory cytokines: IL-4, IL-13, and TNF-α amounts were evaluated to determine the effects of the disclosed composition on the release of inflammatory cytokines. IL-4 and IL-13 amounts were measured using Human IL-4 (ab100570) and IL-13 (ab100553) ELISA kit (Abeam, Cambridge, Mass.) on the supernate of the culture medium. 100 μL of the sample was added to 96-plate wells, then 100 μL of Biotinylated IL-4 and IL-13 detection antibody were added and incubated at room temperature for 1 hour. 100 μL of HRP-streptavidin solution was added and incubated at room temperature for 45 minutes. 100 μL of TMB one step substrate reagent was added and incubated at room temperature for 30 minutes. Washing was performed between each step and incubated on a shaker. Finally, 50 μL of stop solution was added without washing. Absorbance was measured at 450 nm with a spectrophotometer (Biotek, PowerWave XS2, Winooski, Vt., USA).

[4] = tested on: HMC-1 cells; experiment: Prostaglandin E2 (PGE2) release in PMACI-treated HMC-1 cells (ELISA); details: for PGE2 release: mean ± S.E.
Procedure: as §1, §2
The prostaglandin E2 (PGE2) amount was measured using a human PGE2 ELISA kit (Abeam, Cambridge, Mass.) on the supernate of the culture medium. 100 μL of the sample was added to 96-plate wells, then 50 μL of PGE2 Alkaline Phosphatase Conjugate was added. 50 ul of PGE2 Antibody was added and incubated on a shaker at room temperature for 45 minutes. 200 μL of pNPP substrate solution was added and incubated at 37° C. for 30 minutes. 90 μL of Substrate reagent was added and incubated at room temperature for 45 minutes. Washing was performed between each step. 50 μL of stop solution was added without washing. Absorbance was measured at 405 nm with a spectrophotometer (Biotek, PowerWave XS2, Winooski, Vt., USA).

[5] = tested on: HMC-1 cells; experiment: IL-13 release in PMACI-treated HMC-1 cells (ELISA); details: for IL-13 release: PMACI-treated HMC-1 cells, mean ± S.E.
Procedure: as §1, §2, §3

[6] = tested on: HMC-1 cells; experiment: TNF-α release in PMACI-treated HMC-1 cells (ELISA); details: for TNF-α release: PMACI-treated HMC-1 cells, mean ± S.E.
Procedure: as §1, §2
The TNF-α amount was measured using a human TNF-alpha ELISA kit (Abeam, Cambridge, Mass.) on the supernate of the culture medium. 100 μL of the sample was added to 96-plate wells, then 50 μL of Biotinylated TNF alpha detection antibody was added and incubated at room temperature for 3 hours. 100 μL of HRP-streptavidin solution was added and incubated at room temperature for 30 minutes. 100 μL of Chromogen TMB substrate solution was added and incubated at room temperature of the light-shielding state for 20 minutes. Washing was performed between each step and incubated on a shaker. 50 μL of stop solution was added without washing. Absorbance was measured at 450 nm with a spectrophotometer (Biotek, PowerWave XS2, Winooski, Vt., USA).

[7] = Tβ4 1 μg/ml, PMACI-treated HMC-1 cells
[8] = Tβ4 1.5 μg/ml, PMACI-treated HMC-1 cells
[9] = Tβ4 3 μg/ml, PMACI-treated HMC-1 cells
[10] = Tβ4 6 μg/ml, PMACI-treated HMC-1 cells

## thymosin beta 4 (SDKPDMAEIEKFDKSKLKKTETQEKNPLPSKETIEQEKQAGES; Thymosin beta-4; UniProt P62328 2-44, looked up) [Tβ4, human protein; polypeptide composed of 43 amino acids having 4.9 kDa]
[1]; PMACI-treated HMC-1 cells
  Tβ4 concentration with inhibitory effect on histamine release: above 1 μg/ml
  Tβ4 concentration with the best effect of suppressing the increase of HIS release: 3 µg/mL
[1]; [7]
  Histamine release: 25.96 ± 0.78 pg/mL
[1]; [8]
  Histamine release: 23.91 ± 0.36 pg/mL
[1]; [9]
  Histamine release: 22.00 ± 1.10 pg/mL
[1]; [10]
  Histamine release: 23.46 ± 0.55 pg/mL
[1]; Tβ4 1, 1.5, 3, 6 μg/ml (1-6 μg/ml), p<0.01
  Amount of HIS released compared to PMACI alone: significant inhibitory effect; also recorded: significantly decreased
[1]; Tβ4 less than 1 μg/ml
  Amount of HIS released compared to PMACI alone: no significant difference
[2]; PMACI-treated HMC-1 cells
  Tβ4 concentration most effective in inhibiting the increase of LTB4 release: 1.5 µg/mL and 3 µg/mL
  Tβ4 concentration with inhibitory effect on LTB4 release: above 1.5 μg/ml
[2]; [8]
  Leukotrien B4 release: 29.94 ± 1.97 pg/mL
[2]; [9]
  Leukotrien B4 release: 28.91 ± 2.10 pg/mL
[2]; [10]
  Leukotrien B4 release: 32.06 ± 2.44 pg/mL
[2]; Tβ4 1-6 μg/ml
  Release level of LTB4 compared with PMACI treatment alone: significantly decreased
[2]; Tβ4 1.5 and 3 μg/ml, p<0.05
  Amount of LTB4 released compared to PMACI alone: significant inhibitory effect
[3]; PMACI-treated HMC-1 cells
  Tβ4 concentration with inhibitory effect on IL-4 release: above 1.5 μg/ml
[3]; [7]
  IL-4 release: 88.27 ± 10.18 pg/mL
[3]; [8]
  IL-4 release: 79.77 ± 4.27 pg/mL
[3]; [9]
  IL-4 release: 65.43 ± 7.20 pg/mL
[3]; [10]
  IL-4 release: 64.01 ± 3.02 pg/mL
[3]; Tβ4 1-6 μg/ml
  Release level of IL-4 compared with PMACI treatment alone: significantly decreased
[3]; Tβ4 1.5, 3, and 6 μg/ml, p<0.05
  Amount of IL-4 released compared to PMACI alone: significant inhibitory effect
[4]; PMACI-treated HMC-1 cells
  Tβ4 concentration most effective in inhibiting the increase of PGE2 release: 3 µg/mL
  Tβ4 concentration with inhibitory effect on PGE2 release: above 3 μg/ml
[4]; [8]
  PGE2 release: 97.43 ± 2.56 pg/mL
[4]; [9]
  PGE2 release: 94.96 ± 0.87 pg/mL
[4]; Tβ4 3 μg/ml, p<0.05
  Amount of PGE2 released compared to PMACI alone: significant inhibitory effect
[4]; [10]
  PGE2 release: 106.00 ± 3.13 pg/mL
[4]; Tβ4 1-6 μg/ml
  Release level of PGE2 compared with PMACI treatment alone: significantly decreased
[5]; Tβ4 1 μg/ml
  IL-13 release: 30.07 ± 2.33 pg/mL
[5]; Tβ4 1.5 μg/ml
  IL-13 release: 28.52 ± 2.83 pg/mL
[5]; Tβ4 3 μg/ml
  IL-13 release: 28.22 ± 2.33 pg/mL
[5]; Tβ4 6 μg/ml
  IL-13 release: 26.98 ± 2.45 pg/mL
[5]; Tβ4 1, 1.5, 3, and 6 μg/ml (1-6 μg/ml), p<0.05
  Amount of IL-13 released compared to PMACI alone: significant inhibitory effect; also recorded: significantly decreased
[6]; Tβ4 1 μg/ml
  TNF-α release: 513.77 ± 17.85 pg/mL
[6]; Tβ4 1.5 μg/ml
  TNF-α release: 380.23 ± 7.97 pg/mL
[6]; Tβ4 3 μg/ml
  Reduction of TNF-α release compared to PMACI alone: reduced 37.4%
  TNF-α release: 379.42 ± 8.03 pg/mL
[6]; Tβ4 6 μg/ml
  Reduction of TNF-α release compared to PMACI alone: 37.1%
  TNF-α release: 381.46 ± 12.75 pg/mL
[6]; Tβ4 1, 1.5, 3, and 6 μg/ml (1-6 μg/ml), p<0.01
  Amount of TNF-α released compared to PMACI alone: significant inhibitory effect; also recorded: significantly decreased
